± gives the standard deviation of the averaged measurements.
How the values were obtained:
[1] = tested on: HS-PSS; assay: drug sensitivity score (DSS, CellTiter-Glo viability, 72 h) (DSS (dimensionless)); higher = more sensitive; extreme values may be limits of the assay
Method in brief: (§1)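 Viability of MPNST cell lines and primary human Schwann cells was read as CellTiter-Glo ATP luminescence after 72 h at 37 °C, 5% CO2, in 384-well plates seeded with 750–1000 cells per well. Each compound had been preprinted at five concentrations in 10-fold steps. Signals were scaled between vehicle and positive-control wells, duplicates averaged where present, and fitted with four-parameter logistic curves. Drug sensitivity score and relative IC50 (censored at the top concentration) come from those fits, and percent inhibition is taken at the top concentration.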

[2] = tested on: HS-Sch-2; assay: as above
Method in brief: as §1

[3] = tested on: HSC1 (primary human Schwann cells); assay: as above
Method in brief: as §1

[4] = tested on: HSC2 (primary human Schwann cells); assay: as above
Method in brief: as §1

[5] = tested on: S1507-2; assay: as above
Method in brief: as §1

[6] = tested on: S462; assay: as above
Method in brief: as §1

[7] = tested on: ST8814; assay: as above
Method in brief: as §1

[8] = tested on: STS26T; assay: as above
Method in brief: as §1

[9] = tested on: YST-1; assay: as above
Method in brief: as §1

[10] = tested on: HS-PSS; assay: drug sensitivity score (DSS, CellTox-Green cytotoxicity, 72 h) (DSS (dimensionless)); higher = more cytotoxic; extreme values may be limits of the assay
Method in brief: (§2)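 MPNST cell lines and primary human Schwann cells were grown for 72 h at 37 °C in 384-well plates containing five 10-fold compound dilutions. CellTox-Green, added before seeding at a final 1:1000 dilution, gave fluorescence from DNA released by disrupted cells, and signals were scaled to vehicle and positive-control wells. Curves were fitted with a four-parameter logistic model. Drug sensitivity score and relative IC50 come from these fits, with IC50 censored at the top concentration.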

[11] = tested on: HSC1 (primary human Schwann cells); assay: as above
Method in brief: as §2

[12] = tested on: HSC2 (primary human Schwann cells); assay: as above
Method in brief: as §2

[13] = tested on: S1507-2; assay: as above
Method in brief: as §2

[14] = tested on: ST8814; assay: as above
Method in brief: as §2

[15] = tested on: STS26T; assay: as above
Method in brief: as §2

[16] = tested on: HS-PSS; assay: % inhibition of CellTiter-Glo viability at highest tested concentration (72 h), relative to DMSO and benzethonium chloride controls; higher = more inhibition
Method in brief: as §1

[17] = tested on: HS-Sch-2; assay: as above
Method in brief: as §1

[18] = tested on: HSC1 (primary human Schwann cells); assay: as above
Method in brief: as §1

[19] = tested on: HSC2 (primary human Schwann cells); assay: as above
Method in brief: as §1

[20] = tested on: S1507-2; assay: as above
Method in brief: as §1

[21] = tested on: S462; assay: as above
Method in brief: as §1

[22] = tested on: ST8814; assay: as above
Method in brief: as §1

[23] = tested on: STS26T; assay: as above
Method in brief: as §1

[24] = tested on: YST-1; assay: as above
Method in brief: as §1

Compound | drug sensitivity score [1] | drug sensitivity score [2] | drug sensitivity score [3] | drug sensitivity score [4] | drug sensitivity score [5] | drug sensitivity score [6] | drug sensitivity score [7] | drug sensitivity score [8] | drug sensitivity score [9] | drug sensitivity score [10] | drug sensitivity score [11] | drug sensitivity score [12] | drug sensitivity score [13] | drug sensitivity score [14] | drug sensitivity score [15] | % inhibition [16] [%] | % inhibition [17] [%] | % inhibition [18] [%] | % inhibition [19] [%] | % inhibition [20] [%] | % inhibition [21] [%] | % inhibition [22] [%] | % inhibition [23] [%] | % inhibition [24] [%]
COc1ccc(-c2ccc3c(N4CCOC[C@@H]4C)nc(N4CCOC[C@@H]4C)nc3n2)cc1CO [AZD8055] (max concentration tested 10000 nM) | 17 | 17.9 | 26.2 | 27.2 | 22.5 ± 1.3 | 22.3 ± 1.8 | 18 | 21 | 25.1 | 0.77 | 0 | 0 | 0 | 0.371 | 0 | 70.7 | 75.8 | 89.3 | 89.9 | 85.4 ± 0.61 | 74.8 ± 1.4 | 84.1 | 82 | 78.6
CC(=O)c1c(C)c2cnc(Nc3ccc(N4CCNCC4)cn3)nc2n(C2CCCC2)c1=O [Palbociclib] (max concentration tested 10000 nM) | 3.5 | 5.62 | 5.26 | 7.37 | 3.73 ± 0.74 | 8.25 ± 0.96 | 1.84 | 3.39 | 3.89 | 0 | 0 | 0 | 1.02 ± 1.1 | 0 | 0 | 41.6 | 68.8 | 31.6 | 45.6 | 38.8 ± 0.47 | 72.2 ± 6.1 | 28 | 36.7 | 44.5
Cn1cnc(-c2cc3nccc(Oc4ccc(NC(=S)NC(=O)Cc5ccccc5)cc4F)c3s2)c1 [MGCD-265] (max concentration tested 10000 nM) | 2.02 | 2.2 | 0.016 | 0.731 | 4.92 ± 1.6 | 2.93 ± 0.53 | 3.47 | 0 | 0.19 | 0 | 0 | 0.0906 | 3.76 ± 5.3 | 0.0251 | 0 | 23.4 | 29.8 | 11 | 21.3 | 40 ± 2.4 | 40.6 ± 5.4 | 29.8 | 11.4 | 16.1
Cc1ccc(-n2nc(C(C)(C)C)cc2NC(=O)Nc2ccc(OCCN3CCOCC3)c3ccccc23)cc1 [Doramapimod] (max concentration tested 10000 nM) | 6.23 | 3.93 | 1.15 | 2.53 | 0 | 0.326 ± 0.46 | 0 | 0 | 10.5 | 1.28 | 0 | 0 | 1.81 ± 0.51 | 0 | 0 | 68.6 | 55.8 | 26.7 | 32.9 | 0.115 ± 1.9 | 12.1 ± 6.3 | -7.45 | 1.72 | 80.8
COc1cc(Nc2ncc3c(n2)-c2ccc(Cl)cc2C(c2c(F)cccc2OC)=NC3)ccc1C(=O)O [Alisertib] (max concentration tested 10000 nM) | 3.93 | 11.3 | 16.7 | 17.5 | 11.77 ± 0.033 | 18.8 ± 1.3 | 10.5 | 14.9 | 15 | 0 | 0 | 0 | 4.28 ± 3.2 | 7.04 | 18.8 | 44.7 | 64.5 | 65.5 | 57.6 | 50.5 ± 5.3 | 59.1 ± 1 | 59.4 | 58.4 | 47.5
COc1c(C)cnc(Cn2cnc3c(Cl)nc(N)nc32)c1C [BIIB021] (max concentration tested 10000 nM) | 14.4 | 24.5 | 16.2 | 17.6 | 18.1 ± 1.3 | 20.083 ± 0.0076 | 17.8 | 16.9 | 15 | 5.44 | 20 | 19.7 | 15.8 ± 2.9 | 9.2 | 11.8 | 88 | 99.9 | 96.4 | 96.9 | 98.34 ± 0.36 | 97 ± 1.1 | 96.1 | 90.3 | 84.3
Oc1ccc2c(c1)CC[C@H](c1ccccc1)[C@@H]2c1ccc(OCCN2CCCC2)cc1 [Lasofoxifene] (max concentration tested 1000 nM) | 1.43 | 0 | 0 | 0 | 0 | 0.222 ± 0.31 | 0 | 0 | 0 | 0 | 0 | 0 | 0 | 0 | 0 | 21.2 | 8.81 | 17.1 | 9.44 | 6.44 ± 1.6 | 10.5 ± 10 | -2.62 | 4.5 | -1.77
O=C(NC[C@H](O)CO)c1ccncc1Nc1ccc(I)cc1F [Pimasertib] (max concentration tested 10000 nM) | 2.94 | 5.83 | 7.67 | 7.43 | 11.9 ± 1.4 | 11.9 ± 0.82 | 10.8 | 6.72 | 1.29 | 0 | 0.153 | 0 | 5.35 ± 0.4 | 6.32 | 0.309 | 44.3 | 55.4 | 60.7 | 65 | 81.8 ± 2.4 | 83.69 ± 0.41 | 95.9 | 42 | 34.4
CC(C)C[C@H](NC(=O)[C@H](Cc1ccccc1)NC(=O)c1cnccn1)B(O)O [Bortezomib] (max concentration tested 1000 nM) | 14.4 | 30 | 25.6 | 25.7 | 24.458 ± 0.016 | 27.4 ± 0.87 | 26.3 | 23.7 | 24.2 | 7.75 | 19.8 | 20.1 | 30.1 ± 4.9 | 24.3 | 23.5 | 93.5 | 101 | 101 | 102 | 103.6 ± 0.17 | 102.5 ± 0.77 | 103 | 102 | 100
CN[C@@H]1C[C@H]2O[C@@](C)([C@@H]1OC)n1c3ccccc3c3c4c(c5c6ccccc6n2c5c31)C(=O)N[C@H]4O [UCN-01] (max concentration tested 10000 nM) | 22.1 | 26.7 | 27.8 | 30.9 | 32.23 ± 0.17 | 31.03 ± 0.038 | 27.3 | 27.9 | 21.8 | 6.62 | 15.9 | 21.7 | 15.35 ± 0.12 | 13.8 | 29.4 | 100 | 102 | 102 | 103 | 105 ± 1.4 | 105.6 ± 0.5 | 105 | 104 | 89.8
CC1=C(/C=C/C(C)=C/C=C/C(C)=C/C(=O)O)C(C)(C)CCC1 [Tretinoin] (max concentration tested 10000 nM) | 0 | 0 | 3.65 | 1.99 | 2.06 ± 2.6 | 0 | 1.48 | 0.0098 | 0 | 0 | 0 | 0 | 0.483 ± 0.68 | 0 | 0 | -12.1 | -3.32 | 32.9 | 20.1 | 22.8 ± 16 | 4.5 ± 5.9 | 19.1 | 12.3 | -8.64
OC[C@H]1O[C@@H](n2cnc3c2N=CNC[C@H]3O)C[C@@H]1O [Pentostatin] (max concentration tested 10000 nM) | 0 | 0 | 0 | 0 | 0 | 0 | 0 | 0 | 1.08 | 0 | 0 | 0 | 0 | 0 | 0 | 6.06 | 8.51 | 4.07 | 0.65 | -4.44 ± 9.6 | -16.1 ± 7.5 | -0.684 | -3.81 | 9.08
CCCS(=O)(=O)Nc1ccc(F)c(C(=O)c2c[nH]c3ncc(-c4ccc(Cl)cc4)cc23)c1F [Vemurafenib] (max concentration tested 10000 nM) | 1.03 | 1.24 | 6.16 | 6.66 | 0.879 ± 1.2 | 0 | 0 | 3.31 | 0 | 0 | 0 | 0 | 0 | 0.417 | 2.82 | 29.3 | 34.4 | 70.2 | 70.7 | 7.31 ± 3.8 | 12.6 ± 17 | 1.91 | 41.5 | 1.68
